Test system: Gaeumannomyces graminis var. tritici (Ggt)
Experiment: In vitro Assay: mycelial growth of Ggt on minimal media agar plates containing test compound
Type: cell-based
Conditions: dark, 19-20° C., 4 to 5 days, diameter of mycelial growth; for inhibition at 0.1 ppm / inhibition at 1 ppm / inhibition at 10 ppm: Gaeumannomyces graminis; for inhibition at 0.1 ppm / In vitro (ppm) 0.1, Percent Inhibition: 0.1 ppm in minimal media agar; for inhibition at 0.1 ppm: read-out: In vitro (ppm) 0.1, Percent Inhibition; for inhibition at 1 ppm / In vitro (ppm) 1, Percent Inhibition: 1 ppm in minimal media agar; for inhibition at 1 ppm: read-out: In vitro (ppm) 1, Percent Inhibition; for inhibition at 10 ppm / In vitro (ppm) 10, Percent Inhibition: 10 ppm in minimal media agar; for inhibition at 10 ppm: read-out: In vitro (ppm) 10, Percent Inhibition
In short: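 Compounds added from acetone stock into minimal (Czapek Dox) agar; plates inoculated with three 4-mm Ggt plugs, incubated in dark at 19-20° C for 4 to 5 days. Colony diameter measured; Percent Inhibition = [1-((treated mm −4)/(control mm −4))]×100.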

Row | Compound | inhibition at 0.1 ppm [%] | inhibition at 1 ppm [%] | inhibition at 10 ppm [%] | In vitro (ppm) 0.1, Percent Inhibition | In vitro (ppm) 1, Percent Inhibition | In vitro (ppm) 10, Percent Inhibition [%]
1 | CCN(CC)C(=O)c1c([Si](C)(C)C)ccc([Si](C)(C)C)c1Cl [Example 86, N,N-Diethyl-2-chloro-3,6-bis(trimethylsilyl)benzamide] | < 0 | 24 | 72 |  |  | 
2 | CN(C(=O)c1c(Cl)cccc1[Si](C)(C)C)C(C)(C)C [Example 23, 2-Chloro-N-(1,1-dimethylethyl)-N-methyl-6-(trimethylsilyl)benzamide] | < 0 | < 0 | 71 |  |  | 
3 | CCN(CC)C(=O)c1cccc(C)c1[Si](C)(C)C [Example 64, N,N-diethyl-3-methyl-2-(trimethylsilyl)benzamide] | 20 | 14 | 31 |  |  | 
4 | CCN=C(SCC)c1c(Cl)cccc1[Si](C)(C)C [Example 169, 2-Chloro-N-ethyl-6-(trimethylsilyl)benzenecarboximidothioic acid, ethyl ester] | < 0 | 31 | 100 |  |  | 
5 | CCNC(=O)c1c(Cl)cccc1-c1ccccc1C [Example 72, 3-Chloro-N-ethyl-2′-methyl-[1,1′-biphenyl]-2-carboxamide] | < 0 | 59 | 69 |  |  | 
6 | CCNC(=O)c1ccccc1OC(C)(C)C [Example 247, N-Ethyl-2-(1,1-dimethylethoxy)benzamide] | < 0 | 16 | 59 |  |  | 
7 | CCNC(=O)c1sccc1[Si](C)(C)C [Example 248, N-Ethyl-3-(trimethylsilyl)-2-thiophenecarboxamide] | 10 | 10 | 100 |  |  | 
8 | C[Si](C)(C)c1cccc(Cl)c1C(=O)NCc1cccc([N+](=O)[O-])c1 [Example 141, 2-Chloro-N-[(3-nitrophenyl)-methyl]-6-(trimethylsilyl)-benzamide] | 19 | 64 | 100 |  |  | 
9 | CCNC(=O)c1cccn1C[Si](C)(C)C [Example 253, N-Ethyl-1-[(trimethylsilyl)methyl]-1H-pyrrole-2-carboxamide] | < 0 | 14 | 62 |  |  | 
10 | CCN(COC)C(=O)c1c(Cl)cccc1[Si](C)(C)C [Example 46, 2-Chloro-N-ethyl-N-(methoxymethyl)-6-(trimethylsilyl)benzamide] | 15 | 11 | 44 |  |  | 
11 | C[Si](C)(C)c1cccc(Cl)c1C(=O)N1CC=CCC1 [Example 148, 1-[2-Chloro-6-(trimethylsilyl)benzoyl]-1,2,3,6-(tetrahydro)pyridine] |  |  |  | N (If the calculation resulted in “0” or less, as compared to the untreated control, a “N” is shown to indicate no control.) | N (If the calculation resulted in “0” or less, as compared to the untreated control, a “N” is shown to indicate no control.) | 53
12 | C#CC(C)(C)NC(=O)c1c(Cl)cccc1[Si](C)(C)C [Example 107, 2-Chloro-N-(1,1-dimethyl-2-propynyl)-6-(trimethylsilyl)benzamide] | < 0 | < 0 | 24 |  |  | 
13 | CCN(CSC)C(=O)c1c(Cl)cccc1[Si](C)(C)C [Example 279, 2-Chloro-N-ethyl-N-[(methylthio)methyl]-6-(trimethylsilyl)benzamide] | < 0 | < 0 | 47 |  |  | 
14 | CCNC(=O)c1sc2c(c1[Si](C)(C)C)CCCC2 [Example 274, N-Ethyl-3-(trimethylsilyl)-4,5,6,7-tetrahydrobenzo[B]thiophene-2-carboxamide] | < 0 | 10 | 67 |  |  | 
15 | CCN(CC)C(=O)c1cc(C)ccc1[Si](C)(C)C [Example 63, N,N-Diethyl-5-methyl-2-(trimethylsilyl)benzamide] | < 0 | 40 | 69 |  |  | 
16 | CCN(CC)C(=O)c1cccc(F)c1[Si](C)(C)C(C)(C)C [Example 9, 2-[(1,1-Dimethylethyl)dimethylsilyl]-N,N-diethyl-3-fluorobenzamide] | 3 | < 0 | 71 |  |  | 
17 | CCNC(=O)c1c(Br)ccc(OC)c1[Si](C)(C)C [Example 236, 6-Bromo-N-ethyl-3-methoxy-2-(trimethylsilyl)benzamide] | < 0 | 68 | 86 |  |  | 
18 | CCNC(=O)c1c(F)cccc1C1(C)CCCC1 [Example 123, N-Ethyl-2-fluoro-6-(1-methylcyclopentyl)benzamide] | 11 | 78 | 89 |  |  | 

Row | Compound | inhibition at 0.1 ppm [%] | inhibition at 1 ppm [%] | inhibition at 10 ppm [%] | In vitro (ppm) 0.1, Percent Inhibition | In vitro (ppm) 1, Percent Inhibition | In vitro (ppm) 10, Percent Inhibition [%]
19 | CC(C)CNC(=O)c1c(Cl)cccc1[Si](C)(C)C [Example 162, 2-Chloro-N-(2-methylpropyl)-6-(trimethylsilyl)benzamide] | 3 | < 0 | 57 |  |  | 
20 | 3-N,N-diethyl-2-(trimethylsilyl)benzamide [Example 15] |  |  |  | N (If the calculation resulted in “0” or less, as compared to the untreated control, a “N” is shown to indicate no control.) | N (If the calculation resulted in “0” or less, as compared to the untreated control, a “N” is shown to indicate no control.) | 44
21 | CCN(COC)C(=O)c1c(C)cccc1[Si](C)(C)C [Example 127, N-Ethyl-N-(methoxymethyl)-2-methyl-6-(trimethylsilyl)benzamide] | < 0 | 21 | 74 |  |  | 
22 | C[Si](C)(C)c1cccc(Cl)c1C(=O)NCc1ccncc1 [Example 145, 2-Chloro-N-(4-pyridinylmethyl)-6-(trimethylsilyl)benzamide] | < 0 | < 0 | 27 |  |  | 
23 | CCN(CC)C(=O)c1c(Cl)cc(C)cc1[Si](C)(C)C [Example 59, N,N-Diethyl-2-chloro-4-methyl-6-(trimethylsilyl)benzamide] | 6 | < 0 | 26 |  |  | 
24 | CCNC(=O)c1c(Cl)cc(C=O)cc1[Si](C)(C)C [Example 193, 2-Chloro-N-ethyl-4-formyl-6-(trimethylsilyl)benzamide] | 35 | 30 | 57 |  |  | 
25 | C=C(C)CNC(=O)c1c(Cl)cccc1[Si](C)(C)C [Example 147, 2-Chloro-N-(2-methyl-2-propenyl)-6-(trimethylsilyl)benzamide] | < 0 | < 0 | 58 |  |  | 
26 | CCNC(=O)c1c([Si](C)(C)C)ccc(-c2ccccc2)c1Cl [Example 242, 2-Chloro-N-ethyl-3-phenyl-6-(trimethylsilyl)benzamide] | 27 | < 0 | 67 |  |  | 
27 | CCNC(=O)c1c(Cl)cccc1C(C)(C)C [Example 285, 2-Chloro-N-ethyl-6-(1,1-dimethylethyl)benzamide] | < 0 | 50 | 75 |  |  | 
28 | CN(Cc1ccc(C(C)(C)C)cc1)C(=O)c1c(Cl)cccc1[Si](C)(C)C [Example 101, 2-Chloro-N-[[4-(1,1-dimethylethyl)phenyl]methyl]-N-methyl-6-(trimethylsilyl)-benzamide] | 10 | 21 | 62 |  |  | 
29 | CCN(CC)C(=O)c1c(C(F)F)cccc1[Si](C)(C)C [Example 97, 2-(Difluoromethyl)-N,N-diethyl-6-(trimethylsilyl)benzamide] | 7 | 70 | 100 |  |  | 
30 | CCNC(=O)c1c(Cl)ccc(N)c1[Si](C)(C)C [Example 233, 3-Amino-6-chloro-N-ethyl-2-(trimethylsilyl)benzamide] | 28 | 24 | 76 |  |  | 
31 | C[Si](C)(C)c1cccc(Cl)c1C(=O)NCc1ccc2c(c1)OCO2 [Example 144, N-(1,3-benzodioxol-5-ylmethyl)-2-chloro-6-(trimethylsilyl)benzamide] | < 0 | 11 | 59 |  |  | 
32 | CCNC(=O)c1c(Cl)cccc1N(C)C(C)(C)C [Example 190, 2-Chloro-6-[(1,1-dimethylethyl)methylamino]-N-ethylbenzamide] | 24 | 76 | 80 |  |  | 
33 | CCN(C(C)=O)C(=O)c1c(Cl)cccc1[Si](C)(C)C [Example 47, N-Acetyl-2-chloro-N-ethyl-6-(trimethylsilyl)benzamide] | < 0 | < 0 | 70 |  |  | 
34 | CC(C)CSC(=O)c1c(Cl)cccc1[Si](C)(C)C [Example 81, 2-Chloro-6-(trimethylsilyl)-benzenecarbothioic acid, S-(2-methylpropyl) ester] | < 0 | < 0 | 46 |  |  | 
35 | CCOCCN(CC)C(=O)c1c(Cl)cccc1[Si](C)(C)C [Example 128, 2-Chloro-N-(2-ethoxyethyl)-N-ethyl-6-(trimethylsilyl)benzamide] | 4 | 8 | 50 |  |  | 

Reference: patent publication US6410558B1, “Fungicides for the control of take-all disease of plants” (Monsanto Technology LLC, priority 1991, dated 2002)
